# Measured values reported in PMC5267425, “Identification of small molecule modulators of HIV-1 Tat and Rev protein accumulation” (Retrovirology, 2017).
# Test system: alternative splicing of host transcripts in HeLa rtTA HIV∆Mls cells
# Assay: RT-PCR of host alternative splicing events (PSI), capillary electrophoresis
# Type: cell-based
# Procedure: To assess the effect of compounds on expression/alternative splicing of cellular RNA, two approaches were used. For both, total RNA was prepared from DMSO or compound-treated cells. In the first assay, samples were assayed by medium throughput RT-PCR to determine the inclusion levels of alternatively spliced exons and splice sites located in 73 selected events. 73 primer sets containing a fluorescently (5-FAM) labeled primer for each, were used in RT-PCR. PCR products generated were denatured in formamide and quantified using ABI Prism capillary sequencer (Life Technologies). The fragment analysis was performed on the PeakScanner software (Life Technologies) in batch mode and automated using custom scripts written in Python. The inclusion level of each exon was calculated as the amount of transcripts carrying the alternative exon relative to the total amount of all transcripts detected in the PCR reaction and results are summarized for compound-treatment in comparison to DMSO treatment. In the second assay, extracted RNA was processed using the Illumina TruSeq RNA Sample Preparation Kit (Illumina) according to the manufacturer’s instructions. The cDNA library generated was validated (passed quality control on a Bioanalyzer 1000 DNA chip (Agilent)), normalized and pooled for cluster generation. cDNA libraries were sequenced on the Illumina HiSeq 2500 (paired-end, 125 bp) with version 4 chemistry following manufacturer’s protocols. The full human genome and transcriptomic sequences were downloaded from the UCSC Genome Browser (genome.ucsc.edu) database and Ensembl (www.ensembl.org), respectively, as described by Irimia et al.. Exon annotations and genomic coordinates for alternative splicing (AS) analysis were derived from tables downloaded from the UCSC Genome Browser database. To determine gene expression (GE) or alternative splicing (AS) changes in an unbiased way, the effective number of unique mappable positions in each transcript (i.e. the effective length) was determined by aligning sequences with unique transcriptomic alignment to the human genome using Bowtie. Reads with one unique genomic alignment were then aligned against the canonical transcriptome and, for each transcript, the number of reads with one unique transcriptomic alignment were counted. The expression level of genes was quantified as corrected ‘reads per kilobase of exon model per million mapped reads’ (cRPKM), a widely used metric to estimate gene expression levels. The expression cutoff was 0.5 cRPKM, corresponding to the transcript of the gene being present if there were ≥10 reads that mapped uniquely to a single genomic locus. Approximately 19,847 Ensembl annotated protein-coding genes were compared to create a gene list of differentially expressed genes. Genes were considered differentially expressed if fold changes in cRPKM was ≥2 in compound-treated versus DMSO-treated samples.
# [1] = of 70 AS events, 791 30 µM, 833 2 µM
compound,measurement,setting,value
"O=C(NC(=S)NNC(=O)c1ccccc1O)c1ccc(-c2ccccc2)cc1 [Compound 833, N-([2-(2-hydroxybenzoyl)hydrazino]carbonothioyl}-4-biphenylcarboxamide]",DPSI AGPAT4_1 chr6:161506598-161506735,"5227833 minus DMSO, mean n=3",-3.33%
same,DPSI AGPAT4_1 chr6:161507269-161507439,"5227833 minus DMSO, mean n=3",-5.00%
same,DPSI APLP2_1 chr11:129498717-129498884,"5227833 minus DMSO, mean n=3",-2.67%
same,DPSI APP_1 chr21:26291546-26291602,"5227833 minus DMSO, mean n=3",-0.67%
same,DPSI APP_1 chr21:26294201-26294368,"5227833 minus DMSO, mean n=3",-0.67%
same,DPSI ATP6V0A1_1 chr17:37919833-37920004,"5227833 minus DMSO, mean n=3",6.67%
same,DPSI CA12_1 chr15:61406400-61406485,"5227833 minus DMSO, mean n=3",0.67%
same,DPSI CA12_1 chr15:61407349-61407382,"5227833 minus DMSO, mean n=3",-2.67%
same,DPSI CASP9_1 chr1:15703693-15703840*,"5227833 minus DMSO, mean n=3",-1.33%
same,DPSI CAST_1 chr5:96090613-96090669,"5227833 minus DMSO, mean n=3",-3.33%
same,DPSI CLSTN1_1 chr1:9720143-9720199,"5227833 minus DMSO, mean n=3",-17.00%
same,DPSI CLSTN1_2 chr1:9739126-9739155,"5227833 minus DMSO, mean n=3",-4.67%
same,DPSI CRBN_1 chr3:3191846-3191950,"5227833 minus DMSO, mean n=3",0.00%
same,DPSI CRBN_1 chr3:3191950-3191953,"5227833 minus DMSO, mean n=3",-2.00%
same,DPSI CTNND1_1 chr11:57318058-57318129,"5227833 minus DMSO, mean n=3",-6.67%
same,DPSI DNM1L_1 chr12:32782066-32782143,"5227833 minus DMSO, mean n=3",7.67%
same,DPSI DNM1L_1 chr12:32782465-32782497,"5227833 minus DMSO, mean n=3",-4.33%
same,DPSI DRCTNNB1A_1 chr7:22953096-22953391,"5227833 minus DMSO, mean n=3",-8.33%
same,DPSI EIF4A2_1 chr7:187988792-187988899,"5227833 minus DMSO, mean n=3",-10.67%
same,DPSI EIF4A2_1 chr7:187988899-187988904,"5227833 minus DMSO, mean n=3",-7.67%
same,DPSI EIF4H_1 chr7:73242512-73242572,"5227833 minus DMSO, mean n=3",-5.00%
same,DPSI ERC1_1 chr12:1091641-1091725,"5227833 minus DMSO, mean n=3",-11.00%
same,DPSI EXOC7_1 chr17:71598005-71598035,"5227833 minus DMSO, mean n=3",-3.67%
same,DPSI EXOC7_1 chr17:71598819-71598911,"5227833 minus DMSO, mean n=3",-5.67%
same,DPSI FAM62B_1 chr7:158238233-158238295,"5227833 minus DMSO, mean n=3",-4.67%
same,DPSI FAM104A_1 chr17:68720412-68720474,"5227833 minus DMSO, mean n=3",-5.00%
same,DPSI FGFR1OP2_1 chr12:27004715-27004828,"5227833 minus DMSO, mean n=3",-20.67%
same,DPSI FIP1L1_1 chr4:53975538-53975646,"5227833 minus DMSO, mean n=3",-14.67%
same,DPSI GGCT_1 chr7:30504943-30505080,"5227833 minus DMSO, mean n=3",3.00%
same,DPSI GGCT_1 chr7:30506676-30506822,"5227833 minus DMSO, mean n=3",-0.33%
same,DPSI GLK_1 chr2:39388587-39388650,"5227833 minus DMSO, mean n=3",-13.67%
same,DPSI GM130_1 chr9:130069293-130069374,"5227833 minus DMSO, mean n=3",-18.33%
same,DPSI GRB10_1 chr7:50651400-50651538,"5227833 minus DMSO, mean n=3",0.67%
same,DPSI KIF13A_1 chr6:17879324-17879428,"5227833 minus DMSO, mean n=3",-0.33%
same,DPSI MACF1_1 chr1:39616720-39616782,"5227833 minus DMSO, mean n=3",14.00%
same,DPSI MACF1_5 chr1:39719179-39719289,"5227833 minus DMSO, mean n=3",-18.33%
same,DPSI MAP3K7_1 chr6:91310992-91311072,"5227833 minus DMSO, mean n=3",2.67%
same,DPSI MARK3_1 chr14:103034592-103034618,"5227833 minus DMSO, mean n=3",-9.00%
same,DPSI MARK3_1 chr14:103036246-103036290,"5227833 minus DMSO, mean n=3",-5.33%
same,DPSI MBD1_1 chr18:46054554-46054721,"5227833 minus DMSO, mean n=3",-3.33%
same,DPSI MBNL2_1 chr13:96807051-96807104,"5227833 minus DMSO, mean n=3",17.33%
same,DPSI MFF_1 chr2:227901637-227901749,"5227833 minus DMSO, mean n=3",-11.67%
same,DPSI MRIP_1 chr17:17024646-17024708,"5227833 minus DMSO, mean n=3",-6.33%
same,DPSI MVK_1 chr12:108501990-108502134,"5227833 minus DMSO, mean n=3",15.67%
same,DPSI MVK_1 chr12:108503583-108503738,"5227833 minus DMSO, mean n=3",16.67%
same,DPSI NAP1L1_1 chr12:74747418-74747520,"5227833 minus DMSO, mean n=3",-15.67%
same,DPSI NAP1L1_1 chr12:74748956-74749041,"5227833 minus DMSO, mean n=3",-18.33%
same,DPSI NPHP3_1 chr3:133898264-133898347,"5227833 minus DMSO, mean n=3",-6.67%
same,DPSI PDCL_1 chr9:124628716-124628892,"5227833 minus DMSO, mean n=3",3.67%
same,DPSI POLDIP3_1 chr22:41327919-41328006,"5227833 minus DMSO, mean n=3",-17.00%
same,DPSI POMT1_1 chr9:133368281-133368521,"5227833 minus DMSO, mean n=3",4.67%
same,DPSI POMT1_1 chr9:133371321-133371428,"5227833 minus DMSO, mean n=3",-10.00%
same,DPSI RAI14_1 chr5:34849436-34849522,"5227833 minus DMSO, mean n=3",2.33%
same,DPSI RAN_1 chr12:129923082-129923127,"5227833 minus DMSO, mean n=3",-2.00%
same,DPSI RPS24_1 chr10:79467729-79467746,"5227833 minus DMSO, mean n=3",3.00%
same,DPSI SEC24B_1 chr4:110622281-110622386,"5227833 minus DMSO, mean n=3",-18.67%
same,DPSI SETD5_1 chr3:9453533-9453572,"5227833 minus DMSO, mean n=3",-3.33%
same,DPSI SMN2_1 chr5_h2_hap1:475625-475826,"5227833 minus DMSO, mean n=3",2.33%
same,DPSI SMN2_2 chr5_h2_hap1:466192-466246,"5227833 minus DMSO, mean n=3",-7.33%
same,DPSI SPAG9_1 chr17:46408223-46408261,"5227833 minus DMSO, mean n=3",-12.00%
same,DPSI SRPK2_1 chr2:104553464-104553557,"5227833 minus DMSO, mean n=3",-9.00%
same,DPSI SRPK2_1 chr2:104553930-104554023,"5227833 minus DMSO, mean n=3",5.67%
same,DPSI TPM1_1 chr15:61140450-61140525,"5227833 minus DMSO, mean n=3",1.00%
same,DPSI TPM1_1 chr15:61140965-61141040,"5227833 minus DMSO, mean n=3",-1.00%
same,DPSI TRIM37_1 chr17:54433741-54433857,"5227833 minus DMSO, mean n=3",-6.67%
same,DPSI ZNF827_1 chr4:146903692-146903724,"5227833 minus DMSO, mean n=3",-17.67%
same,DPSI ZNF827_1 chr4:146905581-146905589,"5227833 minus DMSO, mean n=3",0.00%
same,DPSI NUMB_2 chr14:72815742-72815885,"5227833 minus DMSO, mean n=3, table row r49",3.67%
same,DPSI NUMB_2 chr14:72815742-72815885,"5227833 minus DMSO, mean n=3, table row r63",6.33%
same,AS events with DPSI ≤ -10%,[1],10
same,AS events with DPSI ≥ 10%,[1],1
same,AS events with P ≤ 0.05,[1],22
